Results reported in patent US20250163150A1, “COMBINATION THERAPIES COMPRISING A KRAS INHIBITOR FOR THE TREATMENT OF CANCER” (I-Mab Biopharma US Limited, priority 2022, published 2025).

B1: TJC4: anti-CD47 antibody with VH SEQ ID NO: 1, VL SEQ ID NO: 2 and human IgG4 Fc region comprising S228P substitution (antibody, V domains shown)
VH: EVQLVESGGGLVKPGGSLRLSCAASGLTFERAWMNWVRQAPGKGLEWVGRIKRKTDGETTDYAAPVKGRFSISRDDSKNTLYLQMNSLKTEDTAVYYCAGSNRAFDIWGQGTMVTVSS
VL: DIVMTQSPDSLAVSLGERATINCKSSQSVLYAGNNRNYLAWYQQKPGQPPKLLINQASTRASGVPDRFSGSGSGTEFTLIISSLQAEDVAIYYCQQYYTPPLAFGGGTKLEIK
modifications: human IgG4 Fc with S228P, no entry

Experiments:
[1] = tested on: NCI-H358 human NSCLC tumor cells (KRAS G12C); test: In vitro phagocytosis of NCI-H358 tumor cells by M0 macrophages (IncuCyte pHrodo); assay type: cell-based; conditions: AMG 510 pre-treatment 0.1, 1 or 10 μm 24 hours, then M0 macrophage 1:1 and 1 μg/ml TJC4 3-6 hours, FIG. 4A-4C
Protocol: The following experiments were performed to assess the effects of anti-CD47 antibody TJC4 in combination with the KRAS G12C inhibitor AMG-510 on the in vitro phagocytosis of NCI-H358 human NSCLC tumor cells. As discussed in Example 1, NCI-H358 cells bear the KRAS G12C mutation. The in vitro phagocytosis assays were performed by co-culturing M0 macrophage cells with INCUCYTE® PHRODO®-labeled NCI-H358 tumor cells. Briefly, prior to co-culture, NCI-H358 cells were pre-treated with AMG 510 at the concentrations of 0 μm, 0.1 μm, 1 μm, or 10 μm for 24 hours. The NCI-H358 cells were further incubated with M0 macrophage (at a ratio of 1:1) and 1 μg/ml TJC4 for 3-6 hours. The NCI-H358 cells were then subject to INCUCYTE® ZOOM Live-Cell Imaging System analysis, and the percentage of phagocytosed NCI-H358 was calculated.
Synergy of the combination of AMG 510 and TJC4 in inducing phagocytosis was calculated as: […]
An F value≥1.00 indicates a synergistic effect between AMG-510 and TJC4.

[2] = tested on: human NCI-H358 non-small cell lung cancer (NSCLC) tumor xenografts (KRAS G12C); test: In vivo anti-tumor efficacy in mice bearing NCI-H358 NSCLC tumor xenografts; design: species or system CB17 SCID mice; conditions: 1 mg/kg QD (AMG-510 p.o., TJC4 i.p.), tumor size over 15 days, FIG. 1
Protocol: The anti-tumor efficacy of anti-CD47 antibody TJC4 in combination with the KRAS G12C inhibitor AMG-510 was assessed in mice bearing human NCI-H358 non-small cell lung cancer (NSCLC) tumor xenografts. The NCI-H358 cell line, which was established from a chemotherapy-naïve NSCLC tumor, harbors a KRAS G12C mutation. TJC4 is an exemplary anti-CD47 antibody that comprises a VH that comprises SEQ ID NO: 1, a VL that comprises SEQ ID NO: 2, and a human IgG4 Fe region that comprises an S228P substitution (EU numbering). AMG-510 is also known as Sotorasib. KRAS G12C mutations, which are common in NSCLC, lead to constitutive activation of the tumor growth-promoting RAS/MAPK signaling pathway. […]
Each animal's tumor size was measured three times per week for 15 days. Tumor size was calculated as V=0.5L×W^2, where L and W indicate long and short diameters of the tumor, respectively. Anti-tumor efficacy of the drugs was also analyzed by TGI % (percentage of tumor growth inhibition). TGI % was calculated as: […]
where TRTV is treatment group RTV, and CRTV is control group RTV. RTV=VN/V1, where V1 is the mean tumor volume measured on Day 1 of administration, and VN is the mean tumor volume measured on Day N of administration.
The synergy of the combination of TJC4 and AMG-510 was calculated as: […]

[3] = tested on: LS180 human colon adenocarcinoma cells; test: Apoptosis of LS180 cells (FITC-Annexin V / PI flow cytometry); assay type: cell-based; conditions: MRTX1133 100 nM, TJC4 0.5 μg/ml, 24 hours; combination compared to either agent alone, FIG. 6A/6B
Protocol: LS180 human colon adenocarcinoma cells were incubated with (a) DMSO, (b) the KRAS G12D inhibitor MRTX1133 (100 nM), (c) anti-CD47 antibody TJC4 (0.5 μg/ml), or (d) MRTX1133 (100 nM)+TJC4 (0.5 μg/ml) for 24 hours and then labeled with fluorescein isothiocyanate (FITC)-Annexin V and propidium iodide (PI). Annexin V (or Annexin A5) is a member of the annexin family of intracellular proteins that binds to phosphatidylserine (PS) in a calcium-dependent manner. PS is normally only found on the intracellular leaflet of the plasma membrane in healthy cells, but during early apoptosis, membrane asymmetry is lost, and PS translocates to the external leaflet. FITC-labeled Annexin V can then be used to specifically target and identify apoptotic cells. PI a cell impermeable nucleic acid intercalating dye. Following staining, the cells were analyzed via flow cytometry.

[4] = tested on: LS180 human colon adenocarcinoma cells (KRAS G12D); test: In vitro phagocytosis of LS180 colon cancer cells by macrophages (flow cytometry); assay type: cell-based; conditions: MRTX1133 100 nM, TJC4 0.5 μg/ml, 24 hours; co-culture 2 hours; combination compared to either agent alone, FIG. 5B
Protocol: LS180 human colon adenocarcinoma cells, which harbor the KRAS G12D mutation were incubated with (a) DMSO, (b) the KRAS G12D inhibitor MRTX1133 (100 nM), (c) anti-CD47 antibody TJC4 (0.5 μg/ml), or (d) MRTX1133 (100 nM)+TJC4 (0.5 μg/ml) for 24 hours and then labeled with 2.5 μM carboxyfluorescein succinimidyl ester (CFSE) for 10 minutes at 37° C. Macrophage cells, which were obtained by human THP-1 leukemia monocyte cells with lipopolysaccharide (LPS) for 24 hours, were cultured in a serum free medium for 2 hours and then added to 2×10^5 CFSE-labeled LS180 cells. The macrophages and the LS180 cells were co-cultured at 37° C. for 2 hours. Macrophages were then stained with an APC-labeled anti-F4/80 antibody, and CFSE+ F4/80+ cells were detected by flow cytometry (10,000 cells analyzed in each sample). The percentage of macrophage-phagocytosed LS180 cells was calculated by dividing the number of CFSE+ F4/80+ cells (see the top right quadrant, i.e., Q2, of each flow cytometry histogram in FIG. 5A) by the number CFSE+ cells (see the top left and right quadrants, i.e., Q1 and Q2, respectively) of each flow cytometry histogram in FIG. 5A). In other words, macrophage-phagocytosed LS180 cells (%)=[Q2/(Q1+Q2)]×100%.

KRAS G12D mutant protein = KRAS G12D mutant protein (Homo sapiens, UniProt P01116, G12D); conditions: Wang et al. (2022) J Med Chem; cited from earlier work
[5] = tested on: human LS180 colon adenocarcinoma tumor xenografts; test: In vivo anti-tumor efficacy in mice bearing LS180 colon adenocarcinoma xenografts (bioluminescence imaging); design: species or system BALB/c nude mice; conditions: MRTX1133 20 mg/kg, TJC4 1 mg/kg, intraperitoneally twice a week for four weeks, FIG. 7B
Protocol: The anti-tumor efficacy of anti-CD47 antibody TJC4 in combination with the KRAS G12D inhibitor MRTZ1133 was assessed in mice bearing human LS180 colon adenocarcinoma tumor xenografts. Briefly, 5×10^5 LS180 cells were injected into the cecal walls of BALB/c nude mice. Tumors formed and grew stably after 2 weeks. Mice were given one of the following treatments for four weeks: (a) PBS (control); (b) TJC4 (1 mg/kg, intraperitoneally twice a week); (c) MRTX1133 (20 mg/kg, intraperitoneally twice a week); or (d) MRTX1133 (20 mg/kg, intraperitoneally twice a week)+TJC4 (1 mg/kg, intraperitoneally twice a week). Tumor growth was evaluated by Bioluminescence imaging (BLI) every week.

Molecule | TJC4-mediated phagocytosis of NCI-H358 by macrophages [1] | tumor growth inhibition as compared to mice treated with PBS control [2] | apoptosis of LS180 cells [3] | phagocytosis of LS180 cells by macrophages [4] | specificity to the KRAS G12D mutant protein relative to wild-type KRAS (KRAS G12D mutant protein) | tumor growth (bioluminescence imaging) [5]
C=CC(=O)N1CCN(c2nc(=O)n(-c3c(C)ccnc3C(C)C)c3nc(-c4c(O)cccc4F)c(F)cc23)[C@@H](C)C1 [AMG-510, 6-Fluoro-7-(2-fluoro-6-hydroxyphenyl)-(1M)-1-[4-methyl-2-(propan-2-yl)pyridin-3-yl]-4-[(2S)-2-methyl-4-(prop-2-enoyl)piperazin-1-yl]pyrido[2,3-d]pyrimidin-2(1H)-one] | enhanced | did not demonstrate tumor growth inhibition | – | – | – | –
C#Cc1c(F)ccc2cc(O)cc(-c3ncc4c(N5CC6CCC(C5)N6)nc(OC[C@@]56CCCN5C[C@H](F)C6)nc4c3F)c12 [MRTX1133] | – | – | increased | increased | more than 1000 times | inhibited tumor growth
B1 | – | did not demonstrate tumor growth inhibition | increased | increased | – | weak inhibitory effect
